# Measured values reported in patent US20100003302A1, “VASCULAR RESTENOSIS PREVENTING AGENT AND IMPLANTABLE INTRAVASCULAR DEVICE COATED THEREWITH” (priority 2001, published 2010).
# Assays:
# [1] = test system: vascular smooth muscles (HNB18E6E7 cell line); experiment: Migration of vascular smooth muscle cells into fibrin gel containing N-chlorsuccinimide; format: cell-based, human; conditions: 37° C., 24 hours
# Procedure: The vascular smooth muscles were collected from human vital arteries and established HNB18E6E7 was used as cell lines. The vascular smooth muscles were incubated in 6-well plates to produce confluent cultures. The resultant supernatant fluids were washed three time with warmed phosphate buffer solution (PBS) and softly added with 3 mg/mL of fibrinogen and 0.8 mL of Waymouth culture solution including 10 w/v % human serum. Then, the supernatant fluids were respectively added with N-chlorsuccinimide to adjust the final concentration of N-chlorsuccinimide to 0.08 mM, 0.8 mM, 8 mM and 80 mM, and gelled by addition of thrombin. The resultant gelled supernatants were incubated at 37° C. for 24 hours, and the numbers of the smooth muscle cells migrated into the gel was counted with a phase contrast microscope. For each concentration, the experiments were carried out to make n=3. The ordinate denotes the frequencies of migration of vascular smooth muscles into the gel, while the abscissa denotes the concentration of N-chlorsuccinimide.
# [2] = test system: right common iliac artery vascular injury model; experiment: Neointimal formation in vascular injury model (right common iliac artery 3-times balloon injury); format: in vivo, rabbits; conditions: local administration by balloon immersed in 80 mM N-chlorsuccinimide vs PBS control; 4 weeks after treatment
# Procedure: There were used a group of animals consisted of 5 (five) […] male rabbits aged 2 months. Vascular injury models were prepared by introducing a Fogarty catheter, Model e-060-2F, made by Baxter corporation (that is an arterial embolectomy balloon catheter) into the right common iliac artery through the right femoral artery under pentobarbital anesthesia, and then abrading the right common iliac artery 3 times under conditions of the balloon being inflated (balloon pressure: 0.5-1.0 atm). After injuring the vascular endothelium, hydrophilic balloons made by Boston Scientific Corporation, of an N-chlorsuccinimide-treated group prepared by immersing the balloons in 80 mM N-chlorsuccinimide, and of a control group prepared by immersing the balloons in PBS, were respectively inflated in the right common iliac arteries to locally administer the drug to each injured area. After 4 weeks from the treatment, the arteries were surgically removed, fixed with 10w/v % neutral buffered formalin fixative and then sectioned to prepare arterial ring tissue sections. After preparing elastic fiber stained tissue samples by EVG (Elastic Van Gieson) staining, the samples were subjected to measurements of intimal area (I) and medial area (M) to determine their ratio (I/M) as the degree of intimal thickening. […]
# α2-macroglobulin = target: T1, α2-macroglobulin (Homo sapiens, UniProt P01023); experiment: Deactivation of α2-macroglobulin (trypsin / coloring matrix S2222 assay, absorption at 405 nm); format: biochemical
# T1 sequence (P01023 24-1474): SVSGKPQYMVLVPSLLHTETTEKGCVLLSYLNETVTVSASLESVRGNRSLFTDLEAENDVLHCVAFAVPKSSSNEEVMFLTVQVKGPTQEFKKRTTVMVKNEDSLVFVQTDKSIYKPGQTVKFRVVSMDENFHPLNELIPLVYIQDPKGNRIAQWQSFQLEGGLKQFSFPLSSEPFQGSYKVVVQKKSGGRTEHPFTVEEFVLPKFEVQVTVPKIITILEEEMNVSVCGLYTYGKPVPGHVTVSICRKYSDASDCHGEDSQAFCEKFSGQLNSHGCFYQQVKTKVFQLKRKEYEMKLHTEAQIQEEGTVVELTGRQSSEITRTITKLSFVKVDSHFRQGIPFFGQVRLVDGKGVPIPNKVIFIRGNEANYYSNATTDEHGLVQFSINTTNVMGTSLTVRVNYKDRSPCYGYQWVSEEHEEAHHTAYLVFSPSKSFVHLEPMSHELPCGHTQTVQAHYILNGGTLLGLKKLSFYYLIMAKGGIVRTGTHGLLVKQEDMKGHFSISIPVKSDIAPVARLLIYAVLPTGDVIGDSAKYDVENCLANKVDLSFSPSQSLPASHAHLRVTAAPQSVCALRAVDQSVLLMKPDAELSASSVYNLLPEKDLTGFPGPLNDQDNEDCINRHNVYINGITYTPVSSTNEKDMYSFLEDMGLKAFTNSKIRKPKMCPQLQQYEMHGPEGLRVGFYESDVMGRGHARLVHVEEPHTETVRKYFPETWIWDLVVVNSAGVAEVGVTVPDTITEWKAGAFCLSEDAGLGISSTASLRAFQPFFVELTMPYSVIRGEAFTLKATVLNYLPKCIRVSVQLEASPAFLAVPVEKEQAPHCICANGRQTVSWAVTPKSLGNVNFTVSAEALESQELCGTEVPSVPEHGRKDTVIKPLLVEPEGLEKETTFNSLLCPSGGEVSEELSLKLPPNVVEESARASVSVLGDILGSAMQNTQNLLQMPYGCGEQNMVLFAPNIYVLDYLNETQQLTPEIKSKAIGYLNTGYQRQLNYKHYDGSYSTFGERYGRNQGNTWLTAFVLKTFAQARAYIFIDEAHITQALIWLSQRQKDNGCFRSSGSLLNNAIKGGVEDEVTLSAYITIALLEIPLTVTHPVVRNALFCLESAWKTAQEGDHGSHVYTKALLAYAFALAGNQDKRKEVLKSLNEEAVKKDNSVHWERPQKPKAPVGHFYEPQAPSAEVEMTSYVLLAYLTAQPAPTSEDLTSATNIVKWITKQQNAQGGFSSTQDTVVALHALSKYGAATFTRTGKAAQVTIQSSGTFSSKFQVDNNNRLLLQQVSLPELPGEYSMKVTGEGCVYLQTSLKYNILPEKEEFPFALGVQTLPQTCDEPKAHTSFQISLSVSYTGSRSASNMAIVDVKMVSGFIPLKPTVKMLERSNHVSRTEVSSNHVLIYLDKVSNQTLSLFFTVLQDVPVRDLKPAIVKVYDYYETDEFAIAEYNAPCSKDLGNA
# Procedure: Utilizing the facts that trypsin is inhibited by α2-macroglobulin and that trypsin causes yellow coloring of a coloring matrix S2222 resulting from decomposition thereof, verification was carried out for effects of methylamine, ethylamine, polyethyleneimines with molecular weights of 600 and 10000, tobramycin, ammonia, lysozyme chloride and polylysine on deactivation of α2-macroglobulin. A concrete method will be given below.
# Firstly, each of methylamine, ethylamine, polyethyleneimines with molecular weights of 600 and 10000, tobramycin, ammonia, lysozyme chloride and polylysine was diluted to 0.0001 w/v %, 0.001 w/v %, 0.01 w/v %, 0.1 w/v % and 1 w/v % to prepare a series of diluted solutions as sample solutions. 50 μL of each sample solution was added with 50 μL of 2.5×10^−4 w/v % α2-macroglobulin and left for 5 minutes at room temperature. Then, the sample solution was added with 50 μL of a 5 w/v % trypsin EDTA solution, left for 5 minutes at room temperature, and then added with 10 μL of the coloring matrix S2222. After leaving the resultant sample solution for 20 minutes at room temperature, the sample solution was added with 50 μL of 10 w/v % acetic acid solution to stop reactions, and then subjected to measurement of absorption of light with a wave length of 405 nm, using 50 mM tris(hydroxymethyl)aminomethane buffer solution of pH 8.0 as the blank. The dilution of all the samples and agents was carried out by a 50 mM tris(hydroxymethyl)aminomethane buffer solution of pH 8.0. Results are shown in FIG. 5, in which the ordinate denotes the deactivation rate of α2-macroglobulin, and the abscissa denotes the concentrations of respective compounds.
# [3] = compound concentration 0.1 w/v %
compound,measurement,setting,value
O=C1CCC(=O)N1Cl [N-chlorsuccinimide],number of migrating vascular smooth muscles,[1]; 80 mM N-chlorsuccinimide in fibrin gel,vanished completely
same,frequency of migration of the vascular smooth muscles into the gel,"[1]; N-chlorsuccinimide 0.08, 0.8, 8 and 80 mM in fibrin gel, n=3",decreases apparently with increasing concentration
same,"neointimal hyperplasia (degree of intimal thickening, I/M ratio)",[2],considerably inhibited
CN [methylamine],deactivation rate of α2-macroglobulin,α2-macroglobulin; compound concentration 1 w/v %,about 100%
polylysine,deactivation rate of α2-macroglobulin,α2-macroglobulin; [3],100%
lysozyme chloride,deactivation rate of α2-macroglobulin,α2-macroglobulin; [3],100%
